Species: Rattus norvegicus
Assay: Open TG-GATES - Regimen: Single
Type: toxicity, organism-based, Sprague-Dawley
Parameters: regimen Single, gender Male, age 6 weeks
Details: in vivo, po, route gavage; for APTT / Bas / Eos / Fbg / Hb / Ht / Lym / MCH / MCHC / MCV / Mono / Neu / PT / Plat / RBC / Ret / WBC: tissue Blood; for KIDNEY_L / KIDNEY_R / KIDNEY_TOTAL: tissue Kidney; for LIVER: tissue Liver; for A/G / ALP / ALT / AST / BUN / CRE / Ca / Cl / DBIL / GLC / IP / K / LDH / Na / PL / RALB / TBIL / TC / TG / TP / gamma-GTP: tissue Plasma
[1] = 200 mg/kg, 3 h, dose level Middle
[2] = 200 mg/kg, 6 h, dose level Middle
[3] = 200 mg/kg, 9 h, dose level Middle
[4] = 200 mg/kg, 24 h, dose level Middle
[5] = 600 mg/kg, 3 h, dose level High
[6] = 600 mg/kg, 6 h, dose level High
[7] = 600 mg/kg, 9 h, dose level High
[8] = 600 mg/kg, 24 h, dose level High

## CCOC(=O)[C@H](CCc1ccccc1)N[C@@H](C)C(=O)N1CCC[C@H]1C(=O)O
[1]
  TERMINAL_BW: 221.1 g
  APTT: 15.6 s
  Bas: 0%
  Eos: 1%
  Fbg: 207 mg/dL
  Hb: 13.1 g/dL
  Ht: 39.7%
  Lym: 81.6%
  MCH: 22.2 pg
  MCHC: 33.1%
  MCV: 67.1 fL
  Mono: 5%
  Neu: 12.4%
  PT: 12 s
  Plat: 117.9 x10_4/uL
  RBC: 591.2 x10_4/ul
  Ret: 9.1%
  WBC: 93.8 x10_2/uL
  KIDNEY_L: 1 g
  KIDNEY_R: 1 g
  KIDNEY_TOTAL: 2.1 g
  LIVER: 10.4 g
  A/G: 1.8
  ALP: 823.4 IU/L
  ALT: 45.2 IU/L
  AST: 67 IU/L
  BUN: 21.2 mg/dL
  CRE: 0.5 mg/dL
  Ca: 10.8 mg/dL
  Cl: 107.2 meq/L
  DBIL: 0.01 mg/dL
  GLC: 205.4 mg/dL
  IP: 9.1 mg/dL
  K: 5.5 meq/L
  LDH: 101.8 IU/L
  Na: 139 meq/L
  PL: 129.8 mg/dL
  RALB: 3.4 g/dL
  TBIL: 0.3 mg/dL
  TC: 72.2 mg/dL
  TG: 82 mg/dL
  TP: 5.3 g/dL
  gamma-GTP: 1.6 IU/L
[2]
  TERMINAL_BW: 215 g
  APTT: 16.6 s
  Bas: 0%
  Eos: 1%
  Fbg: 208.6 mg/dL
  Hb: 13 g/dL
  Ht: 39.7%
  Lym: 75%
  MCH: 21.2 pg
  MCHC: 32.7%
  MCV: 64.7 fL
  Mono: 9.6%
  Neu: 14.4%
  PT: 11.9 s
  Plat: 109.6 x10_4/uL
  RBC: 615.4 x10_4/ul
  Ret: 8.9%
  WBC: 113.1 x10_2/uL
  KIDNEY_L: 1 g
  KIDNEY_R: 1 g
  KIDNEY_TOTAL: 1.9 g
  LIVER: 9.8 g
  A/G: 2.1
  ALP: 770.4 IU/L
  ALT: 43.2 IU/L
  AST: 63.2 IU/L
  BUN: 22 mg/dL
  CRE: 0.5 mg/dL
  Ca: 11 mg/dL
  Cl: 105.6 meq/L
  DBIL: 0.022 mg/dL
  GLC: 195.4 mg/dL
  IP: 10.4 mg/dL
  K: 5.1 meq/L
  LDH: 91.6 IU/L
  Na: 139 meq/L
  PL: 144.6 mg/dL
  RALB: 3.6 g/dL
  TBIL: 0.5 mg/dL
  TC: 79.2 mg/dL
  TG: 53.8 mg/dL
  TP: 5.3 g/dL
  gamma-GTP: 1.2 IU/L
[3]
  TERMINAL_BW: 214.6 g
  APTT: 15.7 s
  Bas: 0%
  Eos: 1.2%
  Fbg: 207.2 mg/dL
  Hb: 12.8 g/dL
  Ht: 39.2%
  Lym: 71.6%
  MCH: 21.4 pg
  MCHC: 32.6%
  MCV: 65.4 fL
  Mono: 10.2%
  Neu: 17%
  PT: 12.1 s
  Plat: 108.6 x10_4/uL
  RBC: 599.4 x10_4/ul
  Ret: 8.8%
  WBC: 88.4 x10_2/uL
  KIDNEY_L: 1.1 g
  KIDNEY_R: 1 g
  KIDNEY_TOTAL: 2.1 g
  LIVER: 8.8 g
  A/G: 2.1
  ALP: 931.6 IU/L
  ALT: 36.2 IU/L
  AST: 65.8 IU/L
  BUN: 25.8 mg/dL
  CRE: 0.4 mg/dL
  Ca: 10.8 mg/dL
  Cl: 108 meq/L
  DBIL: 0.03 mg/dL
  GLC: 189.4 mg/dL
  IP: 10.8 mg/dL
  K: 5.2 meq/L
  LDH: 83.8 IU/L
  Na: 139.4 meq/L
  PL: 120.4 mg/dL
  RALB: 3.5 g/dL
  TBIL: 0.4 mg/dL
  TC: 69.4 mg/dL
  TG: 32.2 mg/dL
  TP: 5.2 g/dL
  gamma-GTP: 2.2 IU/L
[4]
  TERMINAL_BW: 230.9 g
  APTT: 15.8 s
  Bas: 0%
  Eos: 1.8%
  Fbg: 222.8 mg/dL
  Hb: 13 g/dL
  Ht: 39.2%
  Lym: 71.2%
  MCH: 21.4 pg
  MCHC: 33.1%
  MCV: 64.8 fL
  Mono: 8.8%
  Neu: 18%
  PT: 10.8 s
  Plat: 115.7 x10_4/uL
  RBC: 606 x10_4/ul
  Ret: 8.6%
  WBC: 90.5 x10_2/uL
  KIDNEY_L: 1.1 g
  KIDNEY_R: 1 g
  KIDNEY_TOTAL: 2.1 g
  LIVER: 11.5 g
  A/G: 2
  ALP: 915.2 IU/L
  ALT: 38.6 IU/L
  AST: 67.6 IU/L
  BUN: 17.6 mg/dL
  CRE: 0.5 mg/dL
  Ca: 11 mg/dL
  Cl: 103.2 meq/L
  DBIL: 0 mg/dL
  GLC: 198 mg/dL
  IP: 8.4 mg/dL
  K: 5 meq/L
  LDH: 106.4 IU/L
  Na: 137.8 meq/L
  PL: 167.4 mg/dL
  RALB: 3.8 g/dL
  TBIL: 0.5 mg/dL
  TC: 91 mg/dL
  TG: 89 mg/dL
  TP: 5.7 g/dL
  gamma-GTP: 1.8 IU/L
[5]
  TERMINAL_BW: 218.7 g
  APTT: 16.5 s
  Bas: 0%
  Eos: 1.4%
  Fbg: 212 mg/dL
  Hb: 13.3 g/dL
  Ht: 40.4%
  Lym: 74%
  MCH: 21.6 pg
  MCHC: 32.9%
  MCV: 65.9 fL
  Mono: 9.8%
  Neu: 14.6%
  PT: 12 s
  Plat: 109.7 x10_4/uL
  RBC: 614.2 x10_4/ul
  Ret: 8.9%
  WBC: 93.4 x10_2/uL
  KIDNEY_L: 1 g
  KIDNEY_R: 1 g
  KIDNEY_TOTAL: 1.9 g
  LIVER: 10 g
  A/G: 2
  ALP: 719.2 IU/L
  ALT: 83.4 IU/L
  AST: 70.2 IU/L
  BUN: 22.8 mg/dL
  CRE: 0.6 mg/dL
  Ca: 10.3 mg/dL
  Cl: 106.8 meq/L
  DBIL: 0.022 mg/dL
  GLC: 201 mg/dL
  IP: 9 mg/dL
  K: 4.9 meq/L
  LDH: 103.4 IU/L
  Na: 138.6 meq/L
  PL: 125.4 mg/dL
  RALB: 3.6 g/dL
  TBIL: 0.3 mg/dL
  TC: 73.2 mg/dL
  TG: 59.4 mg/dL
  TP: 5.4 g/dL
  gamma-GTP: 2.4 IU/L
[6]
  TERMINAL_BW: 215.5 g
  APTT: 16.6 s
  Bas: 0%
  Eos: 1.2%
  Fbg: 211.2 mg/dL
  Hb: 13.3 g/dL
  Ht: 40.9%
  Lym: 75.4%
  MCH: 21.2 pg
  MCHC: 32.7%
  MCV: 64.8 fL
  Mono: 7.4%
  Neu: 16.2%
  PT: 11.9 s
  Plat: 113.3 x10_4/uL
  RBC: 632.4 x10_4/ul
  Ret: 8.3%
  WBC: 96.5 x10_2/uL
  KIDNEY_L: 1 g
  KIDNEY_R: 1 g
  KIDNEY_TOTAL: 2 g
  LIVER: 9.1 g
  A/G: 2.2
  ALP: 701.6 IU/L
  ALT: 82.8 IU/L
  AST: 75.8 IU/L
  BUN: 28.2 mg/dL
  CRE: 0.6 mg/dL
  Ca: 10.5 mg/dL
  Cl: 107.2 meq/L
  DBIL: 0.022 mg/dL
  GLC: 207 mg/dL
  IP: 9.5 mg/dL
  K: 5.2 meq/L
  LDH: 100.8 IU/L
  Na: 138 meq/L
  PL: 126.2 mg/dL
  RALB: 3.6 g/dL
  TBIL: 0.5 mg/dL
  TC: 68.2 mg/dL
  TG: 36.8 mg/dL
  TP: 5.2 g/dL
  gamma-GTP: 1.6 IU/L
[7]
  TERMINAL_BW: 218.5 g
  APTT: 16.2 s
  Bas: 0%
  Eos: 1%
  Fbg: 208.8 mg/dL
  Hb: 12.7 g/dL
  Ht: 39.2%
  Lym: 78.6%
  MCH: 22.1 pg
  MCHC: 32.4%
  MCV: 68.3 fL
  Mono: 4.2%
  Neu: 16.2%
  PT: 11.6 s
  Plat: 111.9 x10_4/uL
  RBC: 575.2 x10_4/ul
  Ret: 9.9%
  WBC: 91.7 x10_2/uL
  KIDNEY_L: 1 g
  KIDNEY_R: 1 g
  KIDNEY_TOTAL: 1.9 g
  LIVER: 8.5 g
  A/G: 1.8
  ALP: 827.2 IU/L
  ALT: 56.2 IU/L
  AST: 65.6 IU/L
  BUN: 40.8 mg/dL
  CRE: 0.5 mg/dL
  Ca: 10.9 mg/dL
  Cl: 109 meq/L
  DBIL: 0.032 mg/dL
  GLC: 196.4 mg/dL
  IP: 11.1 mg/dL
  K: 5.8 meq/L
  LDH: 66 IU/L
  Na: 138.8 meq/L
  PL: 133.8 mg/dL
  RALB: 3.4 g/dL
  TBIL: 0.4 mg/dL
  TC: 76 mg/dL
  TG: 26 mg/dL
  TP: 5.3 g/dL
  gamma-GTP: 1.8 IU/L
[8]
  TERMINAL_BW: 231.8 g
  APTT: 16.2 s
  Bas: 0%
  Eos: 1.2%
  Fbg: 215.6 mg/dL
  Hb: 12.8 g/dL
  Ht: 38.7%
  Lym: 72.2%
  MCH: 21.6 pg
  MCHC: 33%
  MCV: 65.4 fL
  Mono: 13%
  Neu: 13.8%
  PT: 10.9 s
  Plat: 115.6 x10_4/uL
  RBC: 592.6 x10_4/ul
  Ret: 9.2%
  WBC: 103.4 x10_2/uL
  KIDNEY_L: 1 g
  KIDNEY_R: 1 g
  KIDNEY_TOTAL: 2 g
  LIVER: 12.5 g
  A/G: 2
  ALP: 1036 IU/L
  ALT: 34.4 IU/L
  AST: 60 IU/L
  BUN: 20 mg/dL
  CRE: 0.5 mg/dL
  Ca: 11.3 mg/dL
  Cl: 104.4 meq/L
  DBIL: 0 mg/dL
  GLC: 207.4 mg/dL
  IP: 8.9 mg/dL
  K: 4.8 meq/L
  LDH: 101.6 IU/L
  Na: 138.6 meq/L
  PL: 170.6 mg/dL
  RALB: 3.8 g/dL
  TBIL: 0.4 mg/dL
  TC: 89.6 mg/dL
  TG: 132.4 mg/dL
  TP: 5.6 g/dL
  gamma-GTP: 2.2 IU/L

Reference: ChEMBL document CHEMBL3885861, “Open TG-GATES”
